In patent US20250352520A1, “USE OF DEXPRAMIPEXOLE FOR THE TREATMENT OF EOSINOPHILIC COPD” (Areteia Therapeutics, Inc., priority 2024, published 2025):

Conditions: Week 16; >=50% AEC reduction at Week 16

CCCN[C@@H]1CCc2nc(N)sc2C1 [Dexpramipexole, (6R)-2-amino-4,5,6,7-tetrahydro-6-(propylamino)benzothiazole]
Pre-BD FEF25-75 % change from baseline, Max: 27%
Pre-BD FEF25-75 % change from baseline, Mean ± SD: 13.6 ± 13.59%
Pre-BD FEF25-75 % change from baseline, Median: 13.7%
Pre-BD FEF25-75 % change from baseline, Min: 0%
Pre-BD FEF25-75 % change from baseline, Q1: 0%
Pre-BD FEF25-75 % change from baseline, Q3: 27%
Pre-BD FEF25-75 Observed, Max: 1170 mL/s
Pre-BD FEF25-75 Observed, Mean ± SD: 736.7 ± 486.76 mL/s
Pre-BD FEF25-75 Observed, Median: 830.0 mL/s
Pre-BD FEF25-75 Observed, Min: 210 mL/s
Pre-BD FEF25-75 Observed, Q1: 210 mL/s
Pre-BD FEF25-75 Observed, Q3: 1170 mL/s
Pre-BD FEF25-75 change from baseline, Max: 250 mL/s
Pre-BD FEF25-75 change from baseline, Mean ± SD: 116.7 ± 125.83 mL/s
Pre-BD FEF25-75 change from baseline, Median: 100.0 mL/s
Pre-BD FEF25-75 change from baseline, Min: 0 mL/s
Pre-BD FEF25-75 change from baseline, Q1: 0 mL/s
Pre-BD FEF25-75 change from baseline, Q3: 250 mL/s
Pre-BD FEV1 % change from baseline, Max: 52%
Pre-BD FEV1 % change from baseline, Mean ± SD: 22.5 ± 25.80%
Pre-BD FEV1 % change from baseline, Median: 8.3%
Pre-BD FEV1 % change from baseline, Min: 7%
Pre-BD FEV1 % change from baseline, Q1: 7%
Pre-BD FEV1 % change from baseline, Q3: 52%
Pre-BD FEV1 Observed, Max: 1980 mL
Pre-BD FEV1 Observed, Mean ± SD: 1523.3 ± 657.29 mL
Pre-BD FEV1 Observed, Median: 1820.0 mL
Pre-BD FEV1 Observed, Min: 770 mL
Pre-BD FEV1 Observed, Q1: 770 mL
Pre-BD FEV1 Observed, Q3: 1980 mL
Pre-BD FEV1 change from baseline, Max: 680 mL
Pre-BD FEV1 change from baseline, Mean ± SD: 290.0 ± 340.73 mL
Pre-BD FEV1 change from baseline, Median: 140.0 mL
Pre-BD FEV1 change from baseline, Min: 50 mL
Pre-BD FEV1 change from baseline, Q1: 50 mL
Pre-BD FEV1 change from baseline, Q3: 680 mL
Pre-BD FVC % change from baseline, Max: 29%
Pre-BD FVC % change from baseline, Mean ± SD: 13.7 ± 13.73%
Pre-BD FVC % change from baseline, Median: 10.0%
Pre-BD FVC % change from baseline, Min: 2%
Pre-BD FVC % change from baseline, Q1: 2%
Pre-BD FVC % change from baseline, Q3: 29%
Pre-BD FVC Observed, Max: 3250 mL
Pre-BD FVC Observed, Mean ± SD: 2743.3 ± 470.57 mL
Pre-BD FVC Observed, Median: 2660.0 mL
Pre-BD FVC Observed, Min: 2320 mL
Pre-BD FVC Observed, Q1: 2320 mL
Pre-BD FVC Observed, Q3: 3250 mL
Pre-BD FVC change from baseline, Max: 730 mL
Pre-BD FVC change from baseline, Mean ± SD: 333.3 ± 351.62 mL
Pre-BD FVC change from baseline, Median: 210.0 mL
Pre-BD FVC change from baseline, Min: 60 mL
Pre-BD FVC change from baseline, Q1: 60 mL
Pre-BD FVC change from baseline, Q3: 730 mL
Pre-BD Peak Flow % change from baseline, Max: 115%
Pre-BD Peak Flow % change from baseline, Mean ± SD: 50.4 ± 56.32%
Pre-BD Peak Flow % change from baseline, Median: 21.5%
Pre-BD Peak Flow % change from baseline, Min: 14%
Pre-BD Peak Flow % change from baseline, Q1: 14%
Pre-BD Peak Flow % change from baseline, Q3: 115%
Pre-BD Peak Flow Observed, Max: 338 L/min
Pre-BD Peak Flow Observed, Mean ± SD: 240.0 ± 88.20 L/min
Pre-BD Peak Flow Observed, Median: 215.0 L/min
Pre-BD Peak Flow Observed, Min: 167 L/min
Pre-BD Peak Flow Observed, Q1: 167 L/min
Pre-BD Peak Flow Observed, Q3: 338 L/min
Pre-BD Peak Flow change from baseline, Max: 181 L/min
Pre-BD Peak Flow change from baseline, Mean ± SD: 80.0 ± 87.88 L/min
Pre-BD Peak Flow change from baseline, Median: 38.0 L/min
Pre-BD Peak Flow change from baseline, Min: 21 L/min
Pre-BD Peak Flow change from baseline, Q1: 21 L/min
Pre-BD Peak Flow change from baseline, Q3: 181 L/min
